In ChEMBL document CHEMBL1201862, “PubChem BioAssay data set” (2004):
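All cell lines were grown in 96-well plates and treated with compound for 48 hours. GI50: concentration for 50% inhibition of growth.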 The source made the active and inactive calls. Cut-off read from the data, not from the text of the source: active = GI50 up to about 1.1 µM and inactive = higher.

Tests used:
Experiment in all cases: NCI-60 cell line screen, 48 h
OVCAR-5 = tested on: OVCAR-5
SN12C = tested on: SN12C
OVCAR-4 = tested on: OVCAR-4
SNB-75 = tested on: SNB-75
UACC-257 = tested on: UACC-257
K562 = tested on: K562
786-0 = tested on: 786-0
Malme-3M = tested on: Malme-3M
BT-549 = tested on: BT-549
Hs-578T = tested on: Hs-578T
T47D = tested on: T47D
SK-OV-3 = tested on: SK-OV-3
SK-MEL-5 = tested on: SK-MEL-5
LOX IMVI = tested on: LOX IMVI
EKVX = tested on: EKVX
HT-29 = tested on: HT-29
SF-539 = tested on: SF-539
SK-MEL-2 = tested on: SK-MEL-2
SR = tested on: SR

Row | Structure (SMILES) | GI50 (OVCAR-5) | GI50 (SN12C) | GI50 (OVCAR-4) | GI50 (SNB-75) | GI50 (UACC-257) | GI50 (K562) | GI50 (786-0) | GI50 (Malme-3M) | GI50 (BT-549) | GI50 (Hs-578T) | GI50 (T47D) | GI50 (SK-OV-3) | GI50 (SK-MEL-5) | GI50 (LOX IMVI) | GI50 (EKVX) | GI50 (HT-29) | GI50 (SF-539) | GI50 (SK-MEL-2) | GI50 (SR)
1 | C/C1=C\[C@@H](C)C[C@@H](C)OC(=O)[C@@H](C)NC(=O)[C@H](Cc2ccc(O)c(Br)c2)N(C)C(=O)CNC(=O)[C@H](C)C1 | 13 µM (inactive) | 0.119 µM (active) | < 0.01 µM (active) | < 0.01 µM (active) | < 0.01 µM (active) | < 0.01 µM (active) | < 0.0136 µM (active) | 0.0328 µM (active) | 0.0641 µM (active) | < 0.0136 µM (active) | 0.126 µM (active) | < 0.01 µM (active) | < 0.01 µM (active) | < 0.01 µM (active) | 0.117 µM (active) | < 0.01 µM (active) | < 0.01 µM (active) |  | 
2 | C[C@H]1C(=O)O[C@@H]2CCN3CC=C(COC(=O)[C@](C)(O)[C@@]1(C)O)[C@H]23 | > 100 µM (inactive) | > 100 µM (inactive) | > 100 µM (inactive) | > 100 µM (inactive) | > 100 µM (inactive) | > 100 µM (inactive) | > 100 µM (inactive) |  | > 100 µM (inactive) | > 100 µM (inactive) | > 100 µM (inactive) | > 100 µM (inactive) | > 100 µM (inactive) | > 100 µM (inactive) | > 100 µM (inactive) | > 100 µM (inactive) | > 100 µM (inactive) | > 100 µM (inactive) | 
3 | COc1ccc(C(CC(=O)c2cccs2)C(=O)c2ccc3c(c2)OCO3)cc1 (configuration not stated) |  | > 100 µM (inactive) | > 100 µM (inactive) | > 100 µM (inactive) | > 100 µM (inactive) | > 100 µM (inactive) |  | 97.7 µM (inactive) |  | > 100 µM (inactive) | 69.5 µM (inactive) | > 100 µM (inactive) | > 100 µM (inactive) | > 100 µM (inactive) | > 100 µM (inactive) |  | > 100 µM (inactive) |  | 
4 | CCOC(=O)CCC(NC(=O)c1ccc(Nc2nc3cc(C(F)(F)F)ccc3nc2C(=O)OCC)cc1)C(=O)OCC (configuration not stated) | 16.6 µM (inactive) | 10.7 µM (inactive) | 3.54 µM (inactive) |  | 11 µM (inactive) | 95.3 µM (inactive) | 2.44 µM (inactive) |  | 16.3 µM (inactive) |  | 6.25 µM (inactive) |  | 23.9 µM (inactive) | 16.8 µM (inactive) | 15.9 µM (inactive) | 4.18 µM (inactive) | 12.6 µM (inactive) | 14.1 µM (inactive) | > 100 µM (inactive)
5 | O=C(/C=C(\O)C(=O)O)/C=C(\O)c1ccccc1Cl | > 100 µM (inactive) | > 100 µM (inactive) | > 100 µM (inactive) | > 79.8 µM (inactive) | > 100 µM (inactive) | > 100 µM (inactive) | > 100 µM (inactive) | > 100 µM (inactive) |  |  |  | > 100 µM (inactive) | > 100 µM (inactive) | > 100 µM (inactive) | > 100 µM (inactive) | > 100 µM (inactive) | > 100 µM (inactive) | > 100 µM (inactive) | > 100 µM (inactive)
6 | O=c1[nH]c2ccccc2n1CCCN1CCC(n2c(=O)[nH]c3cc(Cl)ccc32)CC1 [DOMPERIDONE] | 20.2 µM (inactive) | 16.3 µM (inactive) | 17.2 µM (inactive) |  | 16.9 µM (inactive) | 21.4 µM (inactive) | 14.4 µM (inactive) | 17.5 µM (inactive) | 18 µM (inactive) | 19.6 µM (inactive) | 16.3 µM (inactive) | 23.7 µM (inactive) | 14.6 µM (inactive) |  | 22.8 µM (inactive) | 14.6 µM (inactive) |  | 19.2 µM (inactive) | 
7 | Cn1c2ncccc2n2c(=O)cc(O)cc12 | 88.3 µM (inactive) |  | 40 µM (inactive) | 24.4 µM (inactive) | > 100 µM (inactive) | > 100 µM (inactive) | > 100 µM (inactive) | 33.6 µM (inactive) | 94.4 µM (inactive) |  | 24.1 µM (inactive) | > 100 µM (inactive) | > 100 µM (inactive) | 53.6 µM (inactive) | 86.1 µM (inactive) | 46.6 µM (inactive) | > 100 µM (inactive) | 39.6 µM (inactive) | > 100 µM (inactive)
8 | Oc1c(Cl)c(Cl)c(O)c(CCNc2nccs2)c1Cl | 23.2 µM (inactive) | 19 µM (inactive) | 38.1 µM (inactive) | 20.5 µM (inactive) | 20 µM (inactive) | 4.58 µM (inactive) | 16.9 µM (inactive) | 27.4 µM (inactive) |  |  | 5.48 µM (inactive) | 16.3 µM (inactive) | 2.2 µM (inactive) |  | 14.3 µM (inactive) | 17.9 µM (inactive) | 1.68 µM (inactive) | 22.3 µM (inactive) | 4.81 µM (inactive)
9 | CCOP(=O)(OCC)C(Cc1ccc(OC)c(OC)c1)N=C(c1ccccc1)c1ccccc1 (configuration not stated) | 70.5 µM (inactive) | 42 µM (inactive) | 81.7 µM (inactive) | 27.5 µM (inactive) | 56.8 µM (inactive) | < 0.01 µM (active) |  |  | > 100 µM (inactive) |  | 20.5 µM (inactive) |  | 23.4 µM (inactive) |  |  | 36.8 µM (inactive) | 75 µM (inactive) |  | 6.84 µM (inactive)
10 | COC(=O)C1C(C(=O)OC)C1(Br)CBr (configuration not stated) | 25.4 µM (inactive) | 27.5 µM (inactive) | 39.7 µM (inactive) | > 100 µM (inactive) | > 100 µM (inactive) |  | 20.4 µM (inactive) |  | 33.1 µM (inactive) | 89.1 µM (inactive) | 23.2 µM (inactive) | > 100 µM (inactive) | > 99.5 µM (inactive) | 20.9 µM (inactive) | 25.1 µM (inactive) | 24 µM (inactive) | 40.6 µM (inactive) | > 100 µM (inactive) | 17.9 µM (inactive)
11 | COc1ccc(-c2cc(O)c3c(C)cc(C)nc3n2)cc1 | > 100 µM (inactive) | 44.3 µM (inactive) | 26.4 µM (inactive) |  | 25.9 µM (inactive) | 23 µM (inactive) |  | 29 µM (inactive) | 26.4 µM (inactive) | 27.7 µM (inactive) | 28.2 µM (inactive) | > 100 µM (inactive) |  | 27.4 µM (inactive) | 45.2 µM (inactive) | 20.3 µM (inactive) | > 100 µM (inactive) | 43.1 µM (inactive) | 
12 | C=C(Nc1ccc([N+](=O)[O-])cc1[N+](=O)[O-])c1c/c(=N\NC(N)=S)c2ccccc2o1 | 56.9 µM (inactive) | 47.6 µM (inactive) | 49 µM (inactive) | 74.8 µM (inactive) | 91.6 µM (inactive) |  | 66.8 µM (inactive) |  | > 100 µM (inactive) | > 100 µM (inactive) |  | 35.7 µM (inactive) | 37.7 µM (inactive) | > 100 µM (inactive) | 68.7 µM (inactive) | 87.7 µM (inactive) | 16.6 µM (inactive) | > 100 µM (inactive) | 16.9 µM (inactive)
13 | CS(=O)(=O)OCCn1c(=O)n(CCOS(C)(=O)=O)c(=O)n(CCOS(C)(=O)=O)c1=O | > 100 µM (inactive) | > 100 µM (inactive) | > 100 µM (inactive) | > 100 µM (inactive) | > 100 µM (inactive) | > 100 µM (inactive) | > 100 µM (inactive) | > 100 µM (inactive) | > 100 µM (inactive) |  | > 100 µM (inactive) | > 100 µM (inactive) | > 100 µM (inactive) | 36.3 µM (inactive) | > 100 µM (inactive) | > 100 µM (inactive) | > 100 µM (inactive) |  | > 100 µM (inactive)
14 | O=C1Nc2ccccc2/C1=N/NC(=S)Nc1ccccc1Cl | 26.5 µM (inactive) | 10.4 µM (inactive) | 5.13 µM (inactive) | 2.82 µM (inactive) | 2 µM (inactive) | 1.54 µM (inactive) | 1.77 µM (inactive) | 3.44 µM (inactive) |  | 2.67 µM (inactive) | 11.6 µM (inactive) | 10.7 µM (inactive) | 2.89 µM (inactive) | 2.52 µM (inactive) | 4.34 µM (inactive) | 5.41 µM (inactive) | 2.4 µM (inactive) | 13.8 µM (inactive) | < 0.01 µM (active)
15 | NC(=S)NS(=O)(=O)c1ccc(Cl)cc1Cl | > 100 µM (inactive) | > 100 µM (inactive) | > 100 µM (inactive) | > 100 µM (inactive) | > 100 µM (inactive) | > 100 µM (inactive) | > 100 µM (inactive) | > 100 µM (inactive) | > 100 µM (inactive) | > 100 µM (inactive) | > 100 µM (inactive) | > 100 µM (inactive) | > 100 µM (inactive) | > 100 µM (inactive) | > 100 µM (inactive) | > 100 µM (inactive) | > 100 µM (inactive) | > 100 µM (inactive) | 
16 | COCO[C@@H]1C[C@H]2C(O)Nc3ccccc3C(=O)N2C1 (some centres not stated) | > 100 µM (inactive) |  | > 100 µM (inactive) | > 100 µM (inactive) | > 100 µM (inactive) | > 100 µM (inactive) |  |  |  | > 100 µM (inactive) | > 100 µM (inactive) | > 100 µM (inactive) | > 100 µM (inactive) | > 100 µM (inactive) | > 100 µM (inactive) | > 100 µM (inactive) | > 100 µM (inactive) | > 100 µM (inactive) | > 100 µM (inactive)
17 | CN1CC(c2ccccc2)N(CCCCN2CC(c3ccccc3)N(C)CC2c2ccccc2)CC1c1ccccc1 (configuration not stated) | > 100 µM (inactive) | 46.5 µM (inactive) | 37.7 µM (inactive) | 29.4 µM (inactive) | 13.5 µM (inactive) | 19.3 µM (inactive) | 73.5 µM (inactive) | 31.7 µM (inactive) | 37 µM (inactive) | 73.1 µM (inactive) |  | > 100 µM (inactive) | 31.7 µM (inactive) | 14.8 µM (inactive) | 59 µM (inactive) | 24.4 µM (inactive) | 52.7 µM (inactive) | 30.9 µM (inactive) | 68.5 µM (inactive)
